From patent US11034698B2, “Pyrazolo[ 1,5a]pyrimidine derivatives as IRAK4 modulators” (priority 2017, dated 2021)

The compounds below were run against human IRAK4 (Homo sapiens (Human), UniProt Q9NWZ3) (assay: IRAK4 kinase inhibition, Transcreener fluorescence polarization (ADP)). Conditions: recombinant full-length His6-IRAK4 1.25 nM; 125 uM ATP; 125 uM peptide; 90 min; ATP Km 642 uM; read-out: IRAK4 Ki.
Format: biochemical
Method in brief: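 The enzyme was full-length human IRAK4 with an N-terminal His6 tag, expressed in insect cells. Kinase activity was read as ADP product by Transcreener fluorescence polarization.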

Sequence of human IRAK4 (Q9NWZ3 whole entry): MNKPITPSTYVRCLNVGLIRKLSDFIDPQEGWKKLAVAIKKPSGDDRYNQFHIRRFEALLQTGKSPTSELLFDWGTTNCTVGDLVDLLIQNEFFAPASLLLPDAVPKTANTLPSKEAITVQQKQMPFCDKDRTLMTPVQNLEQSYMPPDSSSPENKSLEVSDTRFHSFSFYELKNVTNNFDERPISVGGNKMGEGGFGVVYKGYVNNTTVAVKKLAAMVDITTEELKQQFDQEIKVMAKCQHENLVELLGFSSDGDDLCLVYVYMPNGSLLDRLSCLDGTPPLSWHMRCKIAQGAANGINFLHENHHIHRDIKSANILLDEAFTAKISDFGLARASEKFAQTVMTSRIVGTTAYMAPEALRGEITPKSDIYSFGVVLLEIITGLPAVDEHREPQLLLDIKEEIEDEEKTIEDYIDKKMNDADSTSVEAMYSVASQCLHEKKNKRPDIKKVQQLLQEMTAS

Compound	Ki [nM]
C[C@H]1C[C@@H]2CN(c3cc4c(cc3NC(=O)c3cnn5cccnc35)CN(C[C@@H](F)C(C)(C)O)C4=O)CCN2C1 [Example 110, N-[6-[(7S,8aR)-7-Methyl-3,4,6,7,8,8a-hexahydro-1H-pyrrolo[1,2-a]pyrazin-2-yl]-2-[(2R)-2-fluoro-3-hydroxy-3-methyl-butyl]-1-oxo-isoindolin-5-yl]pyrazolo[1,5-a]pyrimidine-3-carboxamide]	7.5
COCCN1CCN(c2cc3c(cc2NC(=O)c2cnn4cccnc24)CN(C[C@@H](F)C(C)(C)O)C3=O)CC1 [Example 112, (R)-N-(2-(2-Fluoro-3-hydroxy-3-methylbutyl)-6-(4-(2-methoxyethyl)piperazin-1-yl)-1-oxoisoindolin-5-yl)pyrazolo[1,5-a]pyrimidine-3-carboxamide]	2.6
CC(C)N1CCN(c2cc3c(cc2NC(=O)c2cnn4cccnc24)CN(C[C@@H](F)C(C)(C)O)C3=O)CC1 [Example 113, (R)-N-(2-(2-Fluoro-3-hydroxy-3-methylbutyl)-6-(4-isopropylpiperazin-1-yl)-1-oxoisoindolin-5-yl)pyrazolo[1,5-a]pyrimidine-3-carboxamide]	7.5
CC(=O)Nc1ccn2ncc(C(=O)Nc3cc4c(cc3N(C)C)C(=O)N(C[C@@H](F)C(C)(C)O)C4)c2n1 [Example 131, (R)-5-Acetamido-N-(6-(dimethylamino)-2-(2-fluoro-3-hydroxy-3-methylbutyl)-1-oxoisoindolin-5-yl)pyrazolo[1,5-a]pyrimidine-3-carboxamide]	6.4
CN(C)c1cc2c(cc1NC(=O)c1cnn3ccc(C(=O)NC4CC4)nc13)CN(C[C@@H](F)C(C)(C)O)C2=O [Example 132, (R)—N^5-Cyclopropyl-N^3-(6-(dimethylamino)-2-(2-fluoro-3-hydroxy-3-methylbutyl)-1-oxoisoindolin-5-yl)pyrazolo[1,5-a]pyrimidine-3,5-dicarboxamide]	19
CC(C)(O)[C@H](F)CN1Cc2cc(NC(=O)c3cnn4cc(O)cnc34)c(N3CCOCC3)cc2C1=O [Example 133, (R)—N-(2-(2-Fluoro-3-hydroxy-3-methylbutyl)-6-morpholino-1-oxoisoindolin-5-yl)-6-hydroxypyrazolo[1,5-a]pyrimidine-3-carboxamide]	5.7
CC(C)(O)[C@H](F)CN1Cc2cc(NC(=O)c3cnn4cccnc34)c(OCC(F)(F)F)cc2C1=O [Example 135, (R)—N-(2-(2-Fluoro-3-hydroxy-3-methylbutyl)-1-oxo-6-(2,2,2-trifluoroethoxy)isoindolin-5-yl)pyrazolo[1,5-a]pyrimidine-3-carboxamide]	0.63
Cc1ccc(-c2cc3c(cc2NC(=O)c2cnn4cccnc24)CC(C)(C)O3)nc1 [Example 145, N-[2,2-Dimethyl-6-(5-methyl-2-pyridyl)-3H-benzofuran-5-yl]pyrazolo[1,5-a]pyrimidine-3-carboxamide]	60
Cc1ccc(-c2cc3c(cc2NC(=O)c2cnn4cccnc24)CN(C[C@@H](F)C(C)(C)O)C3=O)nc1 [Example 146, (R)-N-(2-(2-Fluoro-3-hydroxy-3-methylbutyl)-6-(5-methylpyridin-2-yl)-1-oxoisoindolin-5-yl)pyrazolo[1,5-a]pyrimidine-3-carboxamide]	8.1
CC(C)(O)[C@H](F)CN1Cc2cc(NC(=O)c3cnn4cccnc34)c(C3COC3)cc2C1=O [Example 147, N-[2-[(2R)-2-Fluoro-3-hydroxy-3-methyl-butyl]-6-(oxetan-3-yl)-1-oxo-isoindolin-5-yl]pyrazolo[1,5-a]pyrimidine-3-carboxamide]	48
CC(C)(O)c1cc2c(cc1NC(=O)c1cnn3cccnc13)CN(C[C@@H](F)C(C)(C)O)C2=O [Example 148, (R)—N-(2-(2-Fluoro-3-hydroxy-3-methylbutyl)-6-(2-hydroxypropan-2-yl)-1-oxoisoindolin-5-yl)pyrazolo[1,5-a]pyrimidine-3-carboxamide]	16
CC(C)N1Cc2cc(NC(=O)c3cnn4cccnc34)c(N(C)C)c(CO)c2C1=O [Example 151, N-(6-(Dimethylamino)-7-(hydroxymethyl)-2-isopropyl-1-oxoisoindolin-5-yl)pyrazolo[1,5-a]pyrimidine-3-carboxamide]	8.2
Cn1ccc2cc(NC(=O)c3cnn4cccnc34)c(N3CCOCC3)cc2c1=O [Example 152, N-(2-Methyl-7-morpholino-1-oxo-1,2-dihydroisoquinolin-6-yl)pyrazolo[1,5-a]pyrimidine-3-carboxamide]	210
O=C(Nc1cc2c(cc1N1CCOCC1)OCCS2)c1cnn2cccnc12 [Example 153, N-(7-Morpholino-2,3-dihydro-1,4-benzoxathiin-6-yl)pyrazolo[1,5-a]pyrimidine-3-carboxamide]	280
CN(C)c1cc2c(cc1NC(=O)c1cnn3cccnc13)CC(C)(C)[C@H]2O [Example 156, N-[(1R)-6-(Dimethylamino)-1-hydroxy-2,2-dimethyl-indan-5-yl]pyrazolo[1,5-a]pyrimidine-3-carboxamide]	16
